Structures can show the parent of a compound that is named as a salt.
Experiments:
[1] = target: human ACC2 (Homo sapiens, UniProt O00763); assay: Acetyl CoA carboxylase (ACC) activity inhibition test, human ACC2; type: biochemical; conditions: 1 μmol/liter test compound; read-out: Inhibition (%) by 1 μmol/liter Chemical, human ACC2
Protocol: (§1) A. Pharmacological Test Example (Acetyl CoA Carboxylase (ACC) Activity Inhibition Test)
(§2) A test compound is dissolved in dimethyl sulfoxide (DMSO) to a concentration of 10 mM and then diluted with DMSO to give a 100-fold concentrated solution of the compound compared with target assay concentration. The ACC enzyme activity inhibition test is carried out according to a modification of Thampy & Wakil's method (J. Biol. Chem., Vol. 260, pp. 6318-6323 (1985)). Concretely, 0.8 μl of the diluted test compound is added to each well of 96-well assay plate (Perkin Elmer Opti Plate), then 40 μl of a substrate solution (50 mM Hepes sodium (pH 7.5), 2 mM DTT, 10 mM ATP, 500 μM acetyl CoA, 0.17 mM NaH[^14C]O3 (58 mCi/mmol, by Amersham), 8 mM NaHCO3) is added to each well, and 40 μL of an enzyme solution (1 to 2 nM human ACC1 or human ACC2, 50 mM Hepes sodium (pH 7.5), 2 mM DTT, 40 mM MgCl2, 40 mM tripotassium citrate 1 mg/ml fetal bovine serum albumin) is added thereto. Then, the upper side of the plate is sealed up, and the plate is incubated with gently stirring at 37° C. for 40 minutes. Next, 20 μl of 1 N HCl is added to each well to stop the enzyme reaction, and the assay plate is stirred overnight to remove the unreacted NaH[^14C]O3. Next, 100 μl of a scintillator (Perkin Elmer's Microscinti 40) is added to each well and the plate is stirred, then the radioactivity of the fixed [^14C] is counted using a microplate scintillation counter (Perkin Elmer's Topcount), the radioactivity of which represents the enzyme activity in each well. The human ACC1 and human ACC2 enzyme-inhibition activities of the test compounds are calculated, based on the radioactivity of the well added by DMSO without test compound as a control.

[2] = target: human ACC1 (Homo sapiens, UniProt Q13085); assay: Acetyl CoA carboxylase (ACC) activity inhibition test, human ACC1; type: biochemical; conditions: 1 μmol/liter test compound; read-out: Inhibition (%) by 1 μmol/liter Chemical, human ACC1
Protocol: as §1, §2

Sequence of human ACC2 (O00763 whole entry): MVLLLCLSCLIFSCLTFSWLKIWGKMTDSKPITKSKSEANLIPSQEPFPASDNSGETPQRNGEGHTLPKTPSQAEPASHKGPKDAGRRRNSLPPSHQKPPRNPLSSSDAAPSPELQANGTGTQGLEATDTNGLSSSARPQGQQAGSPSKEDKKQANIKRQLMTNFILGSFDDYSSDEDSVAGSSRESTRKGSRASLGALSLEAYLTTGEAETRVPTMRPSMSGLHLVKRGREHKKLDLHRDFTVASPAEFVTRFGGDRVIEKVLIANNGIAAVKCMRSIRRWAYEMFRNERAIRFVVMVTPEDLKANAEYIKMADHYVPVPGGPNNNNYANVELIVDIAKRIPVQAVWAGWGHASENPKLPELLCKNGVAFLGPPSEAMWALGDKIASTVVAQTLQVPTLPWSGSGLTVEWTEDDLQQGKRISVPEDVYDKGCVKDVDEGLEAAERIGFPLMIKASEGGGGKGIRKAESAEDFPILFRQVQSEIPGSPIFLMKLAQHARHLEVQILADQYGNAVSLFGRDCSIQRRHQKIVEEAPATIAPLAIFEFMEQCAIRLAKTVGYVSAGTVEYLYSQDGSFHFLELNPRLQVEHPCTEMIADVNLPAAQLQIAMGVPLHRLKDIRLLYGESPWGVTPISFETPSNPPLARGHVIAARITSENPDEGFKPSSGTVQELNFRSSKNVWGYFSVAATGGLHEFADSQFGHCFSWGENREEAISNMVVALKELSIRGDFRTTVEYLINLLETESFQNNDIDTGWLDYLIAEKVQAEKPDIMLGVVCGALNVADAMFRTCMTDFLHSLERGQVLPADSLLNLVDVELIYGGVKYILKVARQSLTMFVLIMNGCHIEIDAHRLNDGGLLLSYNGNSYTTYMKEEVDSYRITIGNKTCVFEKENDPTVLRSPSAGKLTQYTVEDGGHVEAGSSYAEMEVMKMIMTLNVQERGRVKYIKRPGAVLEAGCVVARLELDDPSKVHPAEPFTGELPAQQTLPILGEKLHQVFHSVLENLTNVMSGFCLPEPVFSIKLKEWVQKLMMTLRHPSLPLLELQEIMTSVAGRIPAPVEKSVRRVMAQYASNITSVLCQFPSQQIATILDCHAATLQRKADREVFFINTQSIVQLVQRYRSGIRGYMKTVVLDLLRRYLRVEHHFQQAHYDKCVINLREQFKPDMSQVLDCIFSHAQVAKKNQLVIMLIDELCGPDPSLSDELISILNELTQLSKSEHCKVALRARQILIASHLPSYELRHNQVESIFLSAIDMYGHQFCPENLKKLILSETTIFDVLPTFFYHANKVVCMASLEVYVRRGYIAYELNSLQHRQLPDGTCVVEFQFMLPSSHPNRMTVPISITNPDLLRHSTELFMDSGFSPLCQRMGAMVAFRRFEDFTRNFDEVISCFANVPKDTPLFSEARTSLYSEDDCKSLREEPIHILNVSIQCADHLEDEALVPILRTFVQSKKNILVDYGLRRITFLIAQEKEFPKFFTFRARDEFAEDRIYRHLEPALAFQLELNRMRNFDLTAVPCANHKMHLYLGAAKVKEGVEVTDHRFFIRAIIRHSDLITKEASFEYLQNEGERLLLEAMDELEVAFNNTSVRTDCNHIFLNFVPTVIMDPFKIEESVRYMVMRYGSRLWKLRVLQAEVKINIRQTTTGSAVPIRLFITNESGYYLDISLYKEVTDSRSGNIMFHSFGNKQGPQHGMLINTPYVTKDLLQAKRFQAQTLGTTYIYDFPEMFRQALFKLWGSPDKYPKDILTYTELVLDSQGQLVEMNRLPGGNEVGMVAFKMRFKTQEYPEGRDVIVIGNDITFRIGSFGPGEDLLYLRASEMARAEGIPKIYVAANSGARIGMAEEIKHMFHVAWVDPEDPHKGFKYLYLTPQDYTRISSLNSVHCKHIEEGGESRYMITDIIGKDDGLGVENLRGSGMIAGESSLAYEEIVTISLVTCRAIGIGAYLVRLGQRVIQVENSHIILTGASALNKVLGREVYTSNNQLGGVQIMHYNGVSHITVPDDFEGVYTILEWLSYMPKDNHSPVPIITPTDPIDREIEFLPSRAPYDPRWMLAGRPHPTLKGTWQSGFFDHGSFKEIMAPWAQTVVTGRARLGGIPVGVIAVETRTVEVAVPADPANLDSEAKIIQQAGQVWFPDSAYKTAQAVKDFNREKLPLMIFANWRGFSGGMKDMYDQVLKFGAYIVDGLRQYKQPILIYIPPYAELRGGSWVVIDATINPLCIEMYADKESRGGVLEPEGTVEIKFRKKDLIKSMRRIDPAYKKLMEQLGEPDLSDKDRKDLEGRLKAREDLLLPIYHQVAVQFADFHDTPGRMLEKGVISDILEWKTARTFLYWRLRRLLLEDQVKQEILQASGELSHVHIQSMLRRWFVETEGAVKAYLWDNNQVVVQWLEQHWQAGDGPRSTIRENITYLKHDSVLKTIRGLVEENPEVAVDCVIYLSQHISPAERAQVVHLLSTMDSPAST

SMILES	inhibition at 1 µM [1]	inhibition at 1 µM [2]
CCn1cnc2c(OC)cc(C(=O)N3CCC4(CC3)CC(=O)c3cc(-c5nnn[nH]5)ccc3O4)cc21 [Example 1, 1-[(1-Ethyl-4-methoxy-1H-benzimidazol-6-yl)carbonyl]-6-(1H-tetrazol-5-yl)spiro[chroman-2,4′-piperidine]-4-one]	89%	91%
COc1cc(C(=O)N2CCC3(CC2)CC(=O)c2cc(-c4nnn[nH]4)ccc2O3)cn2c(C3CC3)cnc12 [Example 2, 1′-[(3-Cyclopropyl-8-methoxyimidazo[1,2-a]pyridin-6-yl)carbonyl]-6-(1H-tetrazol-5-yl)spiro[chroman-2,4′-piperidin]-4-one]	93%	93%
COc1cc(C(=O)N2CCC3(CC2)CC(=O)c2cc(-c4noc(=O)[nH]4)ccc2O3)cc2c1ccn2C1CC1 [Example 3, 1′-[(1-Cyclopropyl-4-methoxy-1H-indol-6-yl)carbonyl]-6-(5-oxo-4,5-dihydro-1,2,4-oxadiazol-3-yl)spiro[chroman-2,4′-piperidin]-4-one]	97%	100%
CCn1ccc2c(OCCO)cc(C(=O)N3CCC4(CC3)CC(=O)c3cc(-c5nnn[nH]5)ccc3O4)cc21 [Example 4, 1′-{[1-Ethyl-4-(2-hydroxyethoxy)-1H-indol-6-yl]carbonyl}-6-(1H-tetrazol-5-yl)spiro[chroman-2,4′-piperidin]-4-one]	97%	96%
COc1cc(C(=O)N2CCC3(CC2)CC(=O)c2cc(-c4cccc(C(=O)O)c4)ccc2O3)cc2c1ccn2C1CC1 [Example 5, Sodium 3-{1′-[(1-cyclopropyl-4-methoxy-1H-indol-6-yl)carbonyl]-4-oxospiro[chroman-2,4′-piperidin]-6-yl}benzoate]	99%	99%
COc1cc(C(=O)N2CCC3(CC2)CC(=O)c2cc(-c4cncc(C(=O)O)c4)ccc2O3)cc2c1ccn2C1CC1 [Example 7, 5-{1′-[(1-Cyclopropyl-4-methoxy-1H-indol-6-yl)carbonyl]-4-oxospiro[chroman-2,4′-piperidin]-6-yl}nicotinic acid sodium salt]	99%	100%
COc1cc(C(=O)N2CCC3(CC2)CC(=O)c2cc(-c4nnn[nH]4)ccc2O3)cc2c1ccn2OC [Example 8, 1′-{[1,4-Dimethoxy-1H-indol-6-yl]carbonyl}-6-(1H-tetrazol-5-yl)spiro[chroman-2,4′-piperidin]-4-one]	99%	99%
CCn1ncc2c(OC)cc(C(=O)N3CCC4(CC3)CC(=O)c3cc(-c5nnn[nH]5)ccc3O4)cc21 [Example 10, 1′-[(1-Ethyl-4-methoxy-1H-indazol-6-yl)carbonyl]-6-(1H-tetrazol-5-yl)spiro[chroman-2,4′-piperidin]-4-one]	96%	93%
COc1cc(C(=O)N2CCC3(CC2)CC(=O)c2cc(-c4nnn[nH]4)ccc2O3)cc2c1ccn2C1CC1 [Example 11, 1′-[(1-Cyclopropyl-4-methoxy-1H-indol-6-yl)carbonyl]-6-(1H-tetrazol-5-yl)spiro[chroman-2,4′-piperidin]-4-one]	98%	99%
CCOc1cc(C(=O)N2CCC3(CC2)CC(=O)c2cc(-c4nnn[nH]4)ccc2O3)cc2c1ccn2C1CC1 [Example 13, 1′-[(1-Cyclopropyl-4-ethoxy-1H-indol-6-yl)carbonyl]-6-(1H-tetrazol-5-yl)spiro[chroman-2,4′-piperidin]-4-one]	99%	100%

The next lines start with the values.

inhibition at 1 µM [1]	inhibition at 1 µM [2]	SMILES
99%	98%	CCOc1cc(C(=O)N2CCC3(CC2)CC(=O)c2cc(-c4nnn[nH]4)ccc2O3)cc2c1c(C)cn2C1CC1 [Example 17, 1′-[(1-Cyclopropyl-4-ethoxy-3-methyl-1H-indol-6-yl)carbonyl]-6-(1H-tetrazol-5-yl)spiro[chroman-2,4′-piperidin]-4-one]
98%	99%	COc1cc(C(=O)N2CCC3(CC2)CC(=O)c2cc(-c4cncc(C(=O)O)c4)ccc2O3)cc2c1c(C)cn2C1CC1 [Example 23, 5-{1′-[(1-Cyclopropyl-4-methoxy-3-methyl-1H-indol-6-yl)carbonyl]-4-oxo-spiro[chroman-2,4′-piperidin]-6-yl}nicotinic acid sodium salt]
100%	99%	COc1cc(C(=O)N2CCC3(CC2)CC(=O)c2cc(-c4cncc(C(=O)O)c4)ccc2O3)cc2c1c(Cl)cn2C1CC1 [Example 24, 5-{1′-[(3-Chloro-1-cyclopropyl-4-methoxy-1H-indol-6-yl)carbonyl]-4-oxo-spiro[chroman-2,4′-piperidin]-6-yl}nicotinic acid sodium salt]
98%	97%	CCOc1cc(C(=O)N2CCC3(CC2)CC(=O)c2cc(-c4nnn[nH]4)ccc2O3)cc2c(C3CC3)noc12 [Example 31, 1′-[(3-cyclopropyl-7-ethoxy-1,2-benzisoxazol-5-yl)carbonyl]-6-(1H-tetrazol-5-yl)spiro[chroman-2,4′-piperidin]-4-one]
99%	99%	O=C1CC2(CCN(C(=O)c3cc(OCCO)c4ccn(C5CC5)c4c3)CC2)Oc2ccc(-c3nnn[nH]3)cc21 [Example 36]
100%	100%	CCOc1cc(C(=O)N2CCC3(CC2)CC(=O)c2cc(-c4cncc(C(=O)O)c4)ccc2O3)cc2c1c(C)cn2C1CC1 [Example 45, 5-{1′-[(1-cyclopropyl-4-ethoxy-3-methyl-1H-indol-6-yl)carbonyl]-4-oxospiro[chroman-2,4′-piperidin]-6-yl}nicotinic acid]
99%	99%	CCn1ccc2c(OC)cc(C(=O)N3CCC4(CC3)CC(=O)c3cc(-c5nnn[nH]5)ccc3O4)cc21 [Example 56, 1′-[(1-ethyl-4-methoxy-1H-indol-6-yl)carbonyl]-6-(1H-tetrazol-5-yl)spiro[chroman-2,4′-piperidin]-4-one]
99%	99%	COc1cc(C(=O)N2CCC3(CC2)CC(=O)c2cc(-c4nnc(C(N)=O)[nH]4)ccc2O3)cc2c1ccn2C1CC1 [Example 57, 5-{1′-[(1-cyclopropyl-4-methoxy-1H-indol-6-yl)carbonyl]-4-oxo-spiro[chroman-2,4′-piperidin]-6-yl}-4H-1,2,4-triazole-3-carboxamide]

From patent US8093389B2, “Substituted spirochromanone derivatives” (Merck Sharp & Dohme Corp., priority 2007, dated 2012)
